Among the data in patent US8163793B2, “Proline derivatives” (Hoffman-La Roche Inc., priority 2009, dated 2012) are IC50 values, retold here.

Bounds are passed on as bounds.

The target in the first assay is Cat L (UniProt P07711). The assay is described as follows: Cathepsin enzyme inhibition assay (fluorogenic peptide substrate Z-Val-Val-Arg-AMC), Cathepsin L. In kind it is biochemical, human and mouse. The conditions noted are these: enzyme 1 nM, substrate 20 μM, pH 6.5; read-out: CatL IC50. As for the experimental part:
(§1) Cathepsin Enzyme Inhibition Assay
(§2) Enzyme activity is measured by observing the increase in fluorescence intensity caused by cleavage of a peptide substrate containing a fluorophore whose emission is quenched in the intact peptide.
(§3) Assay buffer: 100 mM potassium phosphate pH 6.5, EDTA-Na 5 mM, Triton X-100 0.001%, DDT 5 mM.
(§4) Enzymes (all at 1 nM): human and mouse Cathepsin S, Cat K, Cat B, Cat L Substrate (20 μM): Z-Val-Val-Arg-AMC, except for Cat K which uses Z-Leu-Arg-AMC (both from Bachem).
(§5) AMC=7-Amino-4-Methyl-Coumarin.
Excitation 360 nm, Emission 465 nm.
Enzyme is added to the substance dilutions in 96-well microtitre plates and the reaction is started with substrate. Fluorescence emission is measured over 20 minutes, during which time a linear increase is observed in the absence of inhibitor. IC50 are calculated by standard methods. The results are expressed in μM in the following table.
On to `N#CC1(NC(=O)[C@@H]2C[C@@H](S(=O)(=O)c3ccccc3C(F)(F)F)CN2c2ncccn2)CC1` [Example 408, (2S,4R)-1-Pyrimidin-2-yl-4-(2-trifluoromethyl-benzenesulfonyl)-pyrrolidine-2-carboxylic acid (1-cyano-cyclopropyl)-amide], for which the IC50 (in general, the midpoint of a concentration-inhibition curve) was no less than 25000 nM.
The same measure, in the same setting: the figure for `N#CC1(NC(=O)[C@@H]2C[C@@H](S(=O)(=O)c3ccccc3C(F)(F)F)CN2c2ccnc(C(F)(F)F)n2)CC1` [Example 185, (2S,4R)-4-(2-Trifluoromethyl-benzenesulfonyl)-1-(2-trifluoromethyl-pyrimidin-4-yl)-pyrrolidine-2-carboxylic acid (1-cyano-cyclopropyl)-amide] is no less than 25000 nM.
The same measure, in the same setting: next, `N#CC1(NC(=O)[C@H]2C[C@@H](S(=O)(=O)c3ccccc3C(F)(F)F)CN2c2ncccc2C(F)(F)F)CC1` [Example 187, (2R,4R)-4-(2-Trifluoromethyl-benzenesulfonyl)-1-(3-trifluoromethyl-pyridin-2-yl)-pyrrolidine-2-carboxylic acid (1-cyano-cyclopropyl)-amide]: no less than 25000 nM.

The target of the next assay is Cathepsin S (UniProt P25774). The assay is described as follows: Cathepsin enzyme inhibition assay (fluorogenic peptide substrate Z-Val-Val-Arg-AMC), Cathepsin S. It is filed as biochemical, human and mouse. Particulars: enzyme 1 nM, substrate 20 μM, pH 6.5; read-out: CatS IC50. The protocol: as §1, §2, §3, §4, §5
Enzyme is added to the substance dilutions in 96-well microtitre plates and the reaction is started with substrate. […] IC50 are calculated by standard methods. The results are expressed in μM in the following table.
`Cc1cc(N2C[C@H](S(=O)(=O)c3ccccc3C(F)(F)F)C[C@H]2C(=O)NC2(C#N)CC2)nn1C` [Example 255, (2S,4R)-1-(1,5-Dimethyl-1H-pyrazol-3-yl)-4-(2-trifluoromethyl-benzenesulfonyl)-pyrrolidine-2-carboxylic acid (1-cyano-cyclopropyl)-amide]: the IC50 was 5.65 nM.
For `CC(C)c1nccn1-c1ccc(S(=O)(=O)[C@@H]2C[C@@H](C(=O)NC3(C#N)CC3)N(C(=O)C3(c4ccc(Cl)cc4)CC3)C2)c(Cl)c1` [Example 336, (2S,4R)-4-[2-Chloro-4-(2-isopropyl-imidazol-1-yl)-benzenesulfonyl]-1-[1-(4-chloro-phenyl)-cyclopropanecarbonyl]-pyrrolidine-2-carboxylic acid (1-cyano-cyclopropyl)-amide], the IC50 was 0.33 nM.
The same measure, in the same setting: the figure for `CN1CCN(c2ccc(S(=O)(=O)[C@@H]3C[C@@H](C(=O)NC4(C#N)CC4)N(C(=O)C4(c5ccc(Cl)cc5)CC4)C3)c(Cl)c2)CC1` [Example 324, (2S,4R)-4-[2-Chloro-4-(4-methyl-piperazin-1-yl)-benzenesulfonyl]-1-[1-(4-chloro-phenyl)-cyclopropanecarbonyl]-pyrrolidine-2-carboxylic acid (1-cyano-cyclopropyl)-amide] is 0.09 nM.
Consider `CC(C)(C)OC(=O)N1C[C@H](S(=O)(=O)c2c(Cl)cccc2Cl)C[C@H]1C(=O)NC1(C#N)CC1` [Example 47, (2S,4R)-2-(1-Cyano-cyclopropylcarbamoyl)-4-(2,6-dichloro-benzenesulfonyl)-pyrrolidine-1-carboxylic acid tert-butyl ester], for which the IC50 came to 1.4 nM.
For `N#CC1(NC(=O)[C@@H]2C[C@@H](S(=O)(=O)c3ccc(-n4ccnc4)cc3Cl)CN2C(=O)C2(c3ccc(Cl)cc3)CC2)CC1` [Example 325, (2S,4R)-4-(2-Chloro-4-imidazol-1-yl-benzenesulfonyl)-1-[1-(4-chloro-phenyl)-cyclopropanecarbonyl]-pyrrolidine-2-carboxylic acid (1-cyano-cyclopropyl)-amide], the IC50 came to 0.08 nM.
Still for that read-out and setting: next, `N#CC1(NC(=O)[C@@H]2C[C@@H](S(=O)(=O)c3ccc(-n4cccn4)cc3Cl)CN2C(=O)C2(c3ccc(Cl)cc3)CC2)CC1` [Example 327, (2S,4R)-1-[1-(4-Chloro-phenyl)-cyclopropanecarbonyl]-4-(2-chloro-4-pyrazol-1-yl-benzenesulfonyl)-pyrrolidine-2-carboxylic acid (1-cyano-cyclopropyl)-amide]: 0.175 nM.
The same measure, in the same setting: next, `N#CC1(NC(=O)[C@@H]2C[C@@H](S(=O)(=O)c3ccc(-c4ccc(F)cc4F)cc3C(F)(F)F)CN2C(=O)C2(C(F)(F)F)CC2)CC1` [Example 263, (2S,4R)-4-(2′,4′-Difluoro-3-trifluoromethyl-biphenyl-4-sulfonyl)-1-(1-trifluoromethyl-cyclopropanecarbonyl)-pyrrolidine-2-carboxylic acid (1-cyano-cyclopropyl)-amide]: 0.33 nM.
With `N#CC1(NC(=O)[C@@H]2C[C@@H](S(=O)(=O)c3ccc(F)cc3Cl)CN2C(=O)C2(c3ccc(Cl)cc3)CC2)CC1` [Example 312, (2S,4R)-4-(2-Chloro-4-fluoro-benzenesulfonyl)-1-[1-(4-chloro-phenyl)-cyclopropanecarbonyl]-pyrrolidine-2-carboxylic acid (1-cyano-cyclopropyl)-amide], the IC50 turned out to be 0.195 nM.
Take `Cc1nccn1-c1ccc(S(=O)(=O)[C@@H]2C[C@@H](C(=O)NC3(C#N)CC3)N(C(=O)C3(c4ccc(Cl)cc4)CC3)C2)c(Cl)c1` [Example 326, (2S,4R)-4-[2-Chloro-4-(2-methyl-imidazol-1-yl)-benzenesulfonyl]-1-[1-(4-chloro-phenyl)-cyclopropanecarbonyl]-pyrrolidine-2-carboxylic acid (1-cyano-cyclopropyl)-amide]: the IC50 was determined as 0.18 nM.
Same read-out and setting: the figure for `CC(C)(C)N1CCN(c2ccc(S(=O)(=O)[C@@H]3C[C@@H](C(=O)NC4(C#N)CC4)N(C(=O)C4(c5ccc(Cl)cc5)CC4)C3)c(Cl)c2)CC1` [Example 329, (2S,4R)-4-[4-(4-tert-Butyl-piperazin-1-yl)-2-chloro-benzenesulfonyl]-1-[1-(4-chloro-phenyl)-cyclopropanecarbonyl]-pyrrolidine-2-carboxylic acid (1-cyano-cyclopropyl)-amide] is 0.115 nM; for `N#CC1(NC(=O)[C@@H]2C[C@@H](S(=O)(=O)c3ccc(N4CCN(CC(F)(F)F)CC4)cc3Cl)CN2C(=O)C2(C(F)(F)F)CC2)CC1` [Example 291, (2S,4R)-4-{2-Chloro-4-[4-(2,2,2-trifluoro-ethyl)-piperazin-1-yl]-benzenesulfonyl}-1-(1-trifluoromethyl-cyclopropanecarbonyl)-pyrrolidine-2-carboxylic acid (1-cyano-cyclopropyl)-amide] it is 14.7 nM.
Take `Cc1cc(N2C[C@H](S(=O)(=O)c3ccccc3C(F)(F)F)C[C@H]2C(=O)NC2(C#N)CC2)n[nH]1` [Example 286, (2S,4R)-1-(5-Methyl-1H-pyrazol-3-yl)-4-(2-trifluoromethyl-benzenesulfonyl)-pyrrolidine-2-carboxylic acid (1-cyano-cyclopropyl)-amide]: the IC50 was determined as 15 nM.
Same read-out and setting: next, `N#CC1(NC(=O)[C@@H]2C[C@@H](S(=O)(=O)Cc3ccccc3)CN2C(=O)C2(c3ccc(Cl)cc3)CC2)CC1` [Example 458, (2S,4R)-4-(benzylsulfonyl)-1-(1-(4-chlorophenyl)cyclopropanecarbonyl)-N-(1-cyanocyclopropyl)pyrrolidine-2-carboxamide]: 61900 nM; `Cc1ccc(C2(C(=O)N3C[C@H](S(=O)(=O)c4ccccc4Cl)C[C@H]3C(=O)NC3(C#N)CC3)CC2)cc1` [Example 438, (2S,4R)-4-(2-chlorophenylsulfonyl)-N-(1-cyanocyclopropyl)-1-(1-p-tolylcyclopropane-carbonyl)pyrrolidine-2-carboxamide]: 0.52 nM; `N#CC1(NC(=O)[C@@H]2C[C@@H](S(=O)(=O)c3ccccc3Cl)CN2C(=O)C2(c3ccc(Cl)cc3)CC2)CC1` [Example 215, (2S,4R)-4-(2-Chloro-benzenesulfonyl)-1-[1-(4-chloro-phenyl)-cyclopropanecarbonyl]-pyrrolidine-2-carboxylic acid (1-cyano-cyclopropyl)-amide]: 0.2 nM.
Same read-out and setting: next, `Cc1cc(N2C[C@H](S(=O)(=O)c3ccc(N4CCN(C)CC4)cc3C(F)(F)F)C[C@H]2C(=O)NC2(C#N)CC2)n(C2CCOCC2)n1` [Example 404, (2S,4R)-4-[4-(4-Methyl-piperazin-1-yl)-2-trifluoromethyl-benzenesulfonyl]-1-[5-methyl-2-(tetrahydro-pyran-4-yl)-2H-pyrazol-3-yl]-pyrrolidine-2-carboxylic acid (1-cyano-cyclopropyl)-amide]: 0.405 nM.
Still for that read-out and setting: next, `Cc1cc(N2C[C@H](S(=O)(=O)c3ccc(N4CC(F)(F)C4)cc3C(F)(F)F)C[C@H]2C(=O)NC2(C#N)CC2)n(C2CCOCC2)n1` [Example 403, (2S,4R)-4-[4-(3,3-Difluoro-azetidin-1-yl)-2-trifluoromethyl-benzenesulfonyl]-1-[5-methyl-2-(tetrahydro-pyran-4-yl)-2H-pyrazol-3-yl]-pyrrolidine-2-carboxylic acid (1-cyano-cyclopropyl)-amide]: 0.49 nM; `N#CC1(NC(=O)[C@@H]2C[C@@H](S(=O)(=O)c3ccc(N4CCN(C5CC5)CC4)cc3Cl)CN2C(=O)C2(c3ccc(Cl)cc3)CC2)CC1` [Example 330, (2S,4R)-4-[2-Chloro-4-(4-cyclopropyl-piperazin-1-yl)-benzenesulfonyl]-1-[1-(4-chloro-phenyl)-cyclopropanecarbonyl]-pyrrolidine-2-carboxylic acid (1-cyano-cyclopropyl)-amide]: 0.08 nM; `CN1CCN(c2ccc(S(=O)(=O)[C@@H]3CC(C(=O)NC4(C#N)CC4)N(C(=O)C4(C(F)(F)F)CC4)C3)c(Cl)c2)CC1` (stereo partly drawn) [Example 305, (R)-4-[2-Chloro-4-(4-methyl-piperazin-1-yl)-benzenesulfonyl]-1-(1-trifluoromethyl-cyclopropanecarbonyl)-pyrrolidine-2-carboxylic acid (1-cyano-cyclopropyl)-amide]: 19.7 nM.
